These results are taken from US11052092B2, “N-{[2-(piperidin-1-yl)phenyl](phenyl)methyl}-2-(3-oxo-3,4-dihydro-2H-1,4-benzoxazin-7-yl)acetamide derivatives and related compounds as ROR-gamma modulators for treating autoimmune diseases” (Genfit, priority 2017, dated 2021).

One test has as its target T1, human RORγt (Homo sapiens, UniProt P51449).
T1 construct: the full-length cDNA of human RORγt; expressed in transfected cells; host or cells: COS-7 (monkey kidney)
T1 sequence (P51449 1-497 isoform P51449-2): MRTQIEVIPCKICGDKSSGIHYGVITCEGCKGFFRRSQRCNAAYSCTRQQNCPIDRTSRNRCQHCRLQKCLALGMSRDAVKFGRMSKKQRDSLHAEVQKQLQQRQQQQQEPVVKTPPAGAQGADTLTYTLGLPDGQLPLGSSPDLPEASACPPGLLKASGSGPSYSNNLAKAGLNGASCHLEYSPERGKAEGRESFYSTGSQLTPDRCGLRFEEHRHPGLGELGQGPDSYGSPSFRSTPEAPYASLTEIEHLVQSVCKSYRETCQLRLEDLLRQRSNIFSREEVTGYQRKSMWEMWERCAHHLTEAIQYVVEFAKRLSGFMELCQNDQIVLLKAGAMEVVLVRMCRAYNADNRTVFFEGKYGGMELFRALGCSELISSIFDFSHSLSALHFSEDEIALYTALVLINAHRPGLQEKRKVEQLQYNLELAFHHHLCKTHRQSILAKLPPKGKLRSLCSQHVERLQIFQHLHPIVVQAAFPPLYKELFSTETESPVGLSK
The test is described as follows: RORE Luciferase/RORγt transactivation assay. It is filed as cell-based. The following applies: COS-7 cells transfected with human IL-17 promoter luciferase reporter and RORγt plasmid; 20 h with compound; read-out: IC50, RORγt activity inhibition. In short, it runs like this:
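Transactivation read-out: luminescence (Steady-Glo, 30 min at room temperature) from COS-7 cells carrying a RORγt expression plasmid plus a 4.3 kb IL-17 promoter luciferase reporter. Compound exposure was in serum-free DMEM with 0.3% DMSO final. Reported values are IC50 (μM) and Emax (%).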
On the technique in general: In a reporter assay the amount or activity of a reporter protein is the signal.

Test [1] relates to Murine EL-4 lymphoma cell line overexpressing human RORγt. The test is described as follows: IL-17 secretion from EL4 murine lymphoma. It is filed as cell-based. The following applies: Mus musculus; human RORγt-transfected EL4 cells, PMA (10 ng/mL) and ionomycin (1 μM), 24 h; read-out: IC50, IL-17 secretion inhibition. Here is the method: Murine EL-4 lymphoma cell line overexpressing human RORγt was used in this functional assay to assess compound ability to inhibit IL-17 cytokine secretion.
EL-4 cells are maintained in a standard culture medium RPMI supplemented with 10% fetal calf serum, 1% sodium pyruvate, 1% essential amino acids and 1% antibiotics at 37° C. in a humidified atmosphere of 5% CO02 and 95% air. Culture medium was changed every 2 days. EL4 cells were transfected with a plasmid encoding hRORγt (sequence identical to published sequence NM 001001523). […] Briefly, 1 μg of DNA/1 million cells was served to transfect EL-4 cells. Cell/DNA suspension was transferred into certified cuvette and the electroporation of RORγt plasmid was carried out using appropriate Nucleofector® program.
Cells were seeded in 96 well plates at a density of 150000 cells/I well then treated with compounds of this invention at indicated concentrations and incubated for 24 hours at 37° C. in a humidified atmosphere of 5% C02 and 95% air. EL-4 cells were pretreated with test compounds (RORγ modulators) and stimulated with PMA (10 ng/mL) and ionomycin (1 μM final concentration) in the presence of test compound concentrations for additional 24 h at 37° C. in a humidified atmosphere of 5% C02 and 95% air. Subsequently, supernatants were collected (after centrifugation at 300 g for 10 minutes) to determine the concentrations of IL-17 by HTRF (CisBio, France) or ELISA (R&D Systems Europe) according to the manufacturer's protocols.

Some results are limits rather than exact numbers.

With `Cc1ccc(C(NC(=O)Cc2ccc3c(c2)C(=NN)C(=O)N3)c2ccc(C)o2)c(N2CCCCC2)c1` (stereo not drawn) [Cpd. 37, 2-(3-hydrazinylidene-2-oxo-2,3-dihydro-1H-indol-5-yl)-N-{[4-methyl-2-(piperidin-1-yl)phenyl](5-methylfuran-2-yl)methyl}acetamide], the IC50 (commonly the concentration needed to halve the response being measured) at human RORγt was 10 to 100 nM; in test [1], 100 to 1000 nM.

For `Cc1ccc(C(NC(=O)Cc2ccc3c(c2)CC(=O)N3C)c2ccc(C)o2)c(N2CCCCC2)c1` (stereo not drawn) [Cpd. 38, N-{[4-methyl-2-(piperidin-1-yl)phenyl](5-methylfuran-2-yl)methyl}-2-(1-methyl-2-oxo-2,3-dihydro-1H-indol-5-yl)acetamide], the IC50 at human RORγt was in the range of 10 to 100 nM; in test [1], 100 to 1000 nM.

Consider `Cc1ccc(C(NC(=O)Cc2ccc3c(c2)C(C)(O)C(=O)N3C)c2ccc(C)o2)c(N2CCCCC2)c1` (stereo not drawn) [Cpd. 39, 2-(3-hydroxy-1,3-dimethyl-2-oxo-2,3-dihydro-1H-indol-5-yl)-N-{[4-methyl-2-(piperidin-1-yl)phenyl](5-methylfuran-2-yl)methyl}acetamide], for which the IC50 (on human RORγt; in test [1]) was 100 to 1000 nM throughout.

In the case of `Cc1ccc(C(NC(=O)Cc2ccc3c(c2)CN(S(C)(=O)=O)C3)c2ccc(C)o2)c(N2CCCCC2)c1` (stereo not drawn) [Cpd. 41, 2-(2-methanesulfonyl-2,3-dihydro-1H-isoindol-5-yl)-N-{[4-methyl-2-(piperidin-1-yl)phenyl](5-methylfuran-2-yl)methyl}acetamide], the IC50 at human RORγt is 10 to 100 nM; in test [1] it was < 100 nM.

`Cc1ccc(C(NC(=O)Cc2ccc3c(c2)C(=NO)C(=O)N3)c2ccc(C)o2)c(N2CCCCC2)c1` (stereo not drawn) [Cpd. 42, 2-[3-(hydroxyimino)-2-oxo-2,3-dihydro-1H-indol-5-yl]-N-{[4-methyl-2-(piperidin-1-yl)phenyl](5-methylfuran-2-yl)methyl}acetamide]: the 50% inhibitory concentration (IC50) (at human RORγt; in test [1]) was 100 to 1000 nM each time.

`Cc1ccc(C(NC(=O)Cc2cc(C)c3c(c2)CC(=O)N3)c2ccc(C)o2)c(N2CCCCC2)c1` (stereo not drawn) [Cpd. 54, N-{[4-methyl-2-(piperidin-1-yl)phenyl](5-methylfuran-2-yl)methyl}-2-(7-methyl-2-oxo-2,3-dihydro-1H-indol-5-yl)acetamide]: the IC50 was 10 to 100 nM on human RORγt and < 100 nM in test [1].

`Cc1ccc(C(NC(=O)Cc2ccc3[nH]cc(CCO)c3c2)c2ccc(C)o2)c(N2CCCCC2)c1` (stereo not drawn) [Cpd. 57, 2-[3-(2-hydroxyethyl)-1H-indol-5-yl]-N-{[4-methyl-2-(piperidin-1-yl)phenyl](5-methylfuran-2-yl)methyl}acetamide]: the results for the IC50 (at human RORγt; in test [1]) were 10 to 100 nM and < 100 nM, respectively.

In the case of `Cc1ccc(C(NC(=O)Cc2ccc3[nH]cc(CO)c3c2)c2ccc(C)o2)c(N2CCCCC2)c1` (stereo not drawn) [Cpd. 58, 2-[3-(hydroxymethyl)-1H-indol-5-yl]-N-{[4-methyl-2-(piperidin-1-yl)phenyl](5-methylfuran-2-yl)methyl}acetamide], the IC50 on human RORγt was 10 to 100 nM; in test [1] it was < 100 nM.

As to `Cc1ccc(C(NC(=O)C2(c3ccc4c(c3)CC(=O)N4)CC2)c2ccc(C)o2)c(C)c1` (stereo not drawn) [Cpd. 61, N-[(2,4-dimethylphenyl)(5-methylfuran-2-yl)methyl]-1-(2-oxo-2,3-dihydro-1H-indol-5-yl)cyclopropane-1-carboxamide], the results for the IC50 (on human RORγt; in test [1]) were < 10 nM and < 100 nM, respectively.

Regarding `Cc1ccc(C(NC(=O)C2(c3ccc4[nH]cc(CCO)c4c3)CC2)c2ccc(Cl)o2)c(C)c1` (stereo not drawn) [Cpd. 62, N-[(5-chlorofuran-2-yl)(2,4-dimethylphenyl)methyl]-1-[3-(2-hydroxyethyl)-1H-indol-5-yl]cyclopropane-1-carboxamide], the IC50 at human RORγt is 10 to 100 nM; in test [1], < 100 nM.

On to `Cc1ccc(C(NC(=O)C2(c3ccc4c(c3)CS(=O)(=O)C4)CC2)c2ccc(Cl)o2)c(C)c1` (stereo not drawn) [Cpd. 72, N-[(5-chlorofuran-2-yl)(2,4-dimethylphenyl)methyl]-1-(2,2-dioxo-1,3-dihydro-2-benzothiophen-5-yl)cyclopropane-1-carboxamide], for which the IC50 at human RORγt was in the range of 10 to 100 nM; in test [1], 100 to 1000 nM.

Take `Cc1ccc(C(NC(=O)C2(c3ccc4c(c3)CN(S(C)(=O)=O)C4)CC2)c2ccc(C)o2)c(N2CCCC2)c1` (stereo not drawn) [Cpd. 73, 1-(2-methanesulfonyl-2,3-dihydro-1H-isoindol-5-yl)-N-{[4-methyl-2-(pyrrolidin-1-yl)phenyl](5-methylfuran-2-yl)methyl}cyclopropane-1-carboxamide]: the IC50 on human RORγt is 10 to 100 nM; in test [1] it was < 100 nM.

Turning to `Cc1ccc(C(NC(=O)C2(c3ccc4c(c3)CN(S(C)(=O)=O)C4)CC2)c2ccc(C)o2)c(N(C)C)c1` (stereo not drawn) [Cpd. 76, N-{[2-(dimethylamino)-4-methylphenyl](5-methylfuran-2-yl)methyl}-1-(2-methanesulfonyl-2,3-dihydro-1H-isoindol-5-yl)cyclopropane-1-carboxamide], the IC50 is 10 to 100 nM on human RORγt and 100 to 1000 nM in test [1].

Turning to `Cc1ccc(C(NC(=O)Cc2ccc3c(c2)CS(=O)(=O)C3)c2ccc(C)o2)c(N2CCCCC2)c1` (stereo not drawn) [Cpd. 78, 2-(2,2-dioxo-1,3-dihydro-2-benzothiophen-5-yl)-N-{[4-methyl-2-(piperidin-1-yl)phenyl](5-methylfuran-2-yl)methyl}acetamide], the 50% inhibitory concentration (IC50) at human RORγt fell in the range of 10 to 100 nM; in test [1], 100 to 1000 nM.

`Cc1ccc(C(NC(=O)Cc2ccc3c(c2)CN(S(C)(=O)=O)C3)c2ccc(Cl)o2)c(N2CCCCC2)c1` (stereo not drawn) [Cpd. 79, N-[(5-chlorofuran-2-yl)[4-methyl-2-(piperidin-1-yl)phenyl]methyl]-2-(2-methanesulfonyl-2,3-dihydro-1H-isoindol-5-yl)acetamide]: the IC50 fell in the range of 10 to 100 nM on human RORγt and 100 to 1000 nM in test [1].

Take `Cc1ccc(C(NC(=O)C2(c3ccc4c(c3)CN(S(C)(=O)=O)C4)CC2)c2ccc(Cl)o2)c(N2CCCC2)c1` (stereo not drawn) [Cpd. 80, N-[(5-chlorofuran-2-yl)[4-methyl-2-(pyrrolidin-1-yl)phenyl]methyl]-1-(2-methanesulfonyl-2,3-dihydro-1H-isoindol-5-yl)cyclopropane-1-carboxamide]: the figures for the IC50 (at human RORγt; in test [1]) were 10 to 100 nM and 100 to 1000 nM, respectively.

As for `Cc1ccc(C(NC(=O)Cc2ccc3c(c2)CC(=O)N3)c2ccc(Cl)o2)c(N2CCCCC2)c1` (stereo not drawn) [Cpd. 83, N-[(5-chlorofuran-2-yl)[4-methyl-2-(piperidin-1-yl)phenyl]methyl]-2-(2-oxo-2,3-dihydro-1H-indol-5-yl)acetamide], the IC50 on human RORγt lay within 10 to 100 nM; in test [1] it was 100 to 1000 nM.

Consider `Cc1ccc(C(NC(=O)Cc2ccc3[nH]c(N4CCOCC4)nc3c2)c2ccc(C)o2)c(N2CCCCC2)c1` (stereo not drawn) [Cpd. 93, N-{[4-methyl-2-(piperidin-1-yl)phenyl](5-methylfuran-2-yl)methyl}-2-[2-(morpholin-4-yl)-1H-1,3-benzodiazol-5-yl]acetamide], for which the IC50 is 10 to 100 nM on human RORγt and < 100 nM in test [1].

For `Cc1ccc(C(NC(=O)Cc2ccc3[nH]cc(C(=O)CS(C)(=O)=O)c3c2)c2ccc(C)o2)c(N2CCCCC2)c1` (stereo not drawn) [Cpd. 103, 2-[3-(2-methanesulfonylacetyl)-1H-indol-5-yl]-N-{[4-methyl-2-(piperidin-1-yl)phenyl](5-methylfuran-2-yl)methyl}acetamide], the IC50 was 10 to 100 nM on human RORγt and < 100 nM in test [1].

Regarding `Cc1ccc(C(NC(=O)Cc2ccc3[nH]cc(C(=O)CS(C)(=O)=O)c3c2)c2ccc(C)o2)c(Br)c1` (stereo not drawn) [Cpd. 104, N-[(2-bromo-4-methylphenyl)(5-methylfuran-2-yl)methyl]-2-[3-(2-methanesulfonylacetyl)-1H-indol-5-yl]acetamide], the values for the IC50 (on human RORγt; in test [1]) were 100 to 1000 nM and 1000 to 10000 nM, respectively.

With `Cc1ccc(C(NC(=O)Cc2ccc3c(ccn3S(C)(=O)=O)c2)c2ccc(C)o2)c(N2CCCCC2)c1` (stereo not drawn) [Cpd. 106, 2-(1-methanesulfonyl-1H-indol-5-yl)-N-{[4-methyl-2-(piperidin-1-yl)phenyl](5-methylfuran-2-yl)methyl}acetamide], the values for the IC50 (at human RORγt; in test [1]) were 10 to 100 nM and 100 to 1000 nM, respectively.
